Assays:
IRAK4 kinase = molecular target: T1, IRAK4 kinase (Homo sapiens, UniProt Q9NWZ3); experiment: IRAK4 kinase activity test (KinEASE-STK S1 HTRF kit); format: biochemical; details: IRAK4 kinase 2.5 nM, 7 μM adenosine triphosphate, 37° C. 120 min
T1 construct: purchased Carna
T1 sequence (Q9NWZ3 1-460): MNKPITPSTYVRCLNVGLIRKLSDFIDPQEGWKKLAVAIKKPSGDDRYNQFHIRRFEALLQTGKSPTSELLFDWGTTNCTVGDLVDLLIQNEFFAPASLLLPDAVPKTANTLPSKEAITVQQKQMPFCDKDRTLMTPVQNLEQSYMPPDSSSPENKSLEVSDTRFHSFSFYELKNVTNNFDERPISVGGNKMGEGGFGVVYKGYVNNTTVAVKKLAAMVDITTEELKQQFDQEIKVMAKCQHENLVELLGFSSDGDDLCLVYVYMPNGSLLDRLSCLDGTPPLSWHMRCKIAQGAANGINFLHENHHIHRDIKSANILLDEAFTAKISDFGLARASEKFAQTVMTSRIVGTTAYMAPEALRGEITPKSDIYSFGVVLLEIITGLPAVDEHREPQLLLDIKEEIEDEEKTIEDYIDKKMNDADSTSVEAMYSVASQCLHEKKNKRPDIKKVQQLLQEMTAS
Method: Then 2.5 nM IRAK4 kinase (Carna), 1 μM biotinylated polypeptide substrate (Cisbio), and 7 μM adenosine triphosphate (Sigma-Aldrich) were sequentially added, and the mixtures were incubated at 37° C. for 120 min. Subsequently, an anti-phosphoserine/threonine antibody (Cisbio) conjugated with a europium element compound and streptavidin conjugated with a modified XL665 (Cisbio) were added to the reaction system to stop the reaction. After 1 h of incubation at room temperature, the fluorescence intensity of each well was measured at the excitation wavelength of 337 nm and the emission wavelengths of 620 nm and 665 nm with a microplate reader EnVision (PerkinElmer) in the HTRF mode, and Ratio values were calculated using the formula: Ratio=(665 nm/620 nm)×10^4. The inhibition rates of the compounds at each concentration were calculated by comparison with the fluorescence intensity ratio of the control group. Then non-linear curve fittings for logarithmic concentration-inhibition rate were performed using GraphPad Prism 7, and the IC50 values of the compounds were obtained.

[1] = molecular target: T2, IRAK4 protein in normal human PBMCs (Homo sapiens, UniProt Q9NWZ3); experiment: Degradation of IRAK4 protein in normal human PBMCs (AlphaLISA); format: cell-based; details: 24 h incubation
T2 construct: host or cells: normal human PBMCs
T2 sequence (Q9NWZ3 1-460): T1 sequence (Q9NWZ3 1-460)
Method: The cryopreserved normal human PBMCs (Milestone, PB010C) were thawed and resuspended in RPMI 1640 medium (Gibco, A1049101) supplemented with 10% fetal bovine serum (Gibco, 10099141), 100 U/mL penicillin, and 100 µg/mL streptomycin (Gibco, 15140122). After 0.95 mL of cells were plated in each well of a 24-well cell culture plate, 50 µL of diluted compound solution was added to corresponding wells with cells, such that the final concentration of the compound fell within the range of 0.01-3000 nM. The final concentration of DMSO was 0.25%. After the compound-treated cell plate was incubated in an incubator at 37° C. with 5% CO2 for 24 h, the cells were collected into 1.5 mL centrifuge tubes and centrifuged at 1000 rpm at 4° C. for 5 min. The cell pellets were washed twice with 1×DPBS. The resuspended cells were lysed with 100 μL of lysis buffer, left to stand on ice for 30 min, and then centrifuged at 14000 g at 4° C. for 10 min. The samples of the cell lysate supernatant after centrifugation were cryopreserved at −80° C. before testing. The cell lysis buffer was a Western and IP cell lysis buffer (Beyotime, P0013) supplemented with 1 mM phenylmethylsulfonyl fluoride and a protease inhibitor cocktail (Beyotime, P1008).
The total protein concentrations of the cell lysate samples were determined using a BCA protein quantification kit (Tiangen, PA115-02).
The prepared PBMC lysate samples were assayed for IRAK4 concentrations using a human IRAK4 AlphaLISA assay kit (PerkinElmer, AL3117C) to determine the degradation effects of the compounds on IRAK4. The method is as follows:
5 μL of each of IRAK4 standard solutions with different concentrations and test samples of cell lysate supernatant were added to a white 384-well plate (PerkinElmer, 6007299), and then 10 μL of 5× anti-IRAK4 […] beads was added to each well (final concentration of 10 μg/mL). The plate was incubated at room temperature for 30 min. Then 10 μL of 5× biotin-labeled anti-IRAK4 antibody was added to each well (final concentration of 1 nM), and the plate was incubated at room temperature for another 60 min. Finally, 25 μL of 2× streptavidin-labeled donor beads was added to each well (final concentration of 40 μg/mL), and the plate was incubated at room temperature for another 30 min. After the incubation was completed, AlphaLISA signal values were measured on a microplate reader EnVision (PerkinElmer, 2105) in the AlphaScreen standard mode. A standard curve was plotted from the AlphaLISA signal values of the IRAK4 standard solutions with different concentrations, and the IRAK4 concentration of each cell lysate supernatant was determined according to the corresponding concentrations on the standard curve for the AlphaLISA signal values of the test samples and by performing corresponding correction on the total protein concentration of each sample obtained by BCA quantification. The degradation rates for the compounds at each concentration were calculated by comparing the IRAK4 concentration with that of the control group. Then non-linear curve fittings for logarithmic concentration-inhibition rate were performed using GraphPad Prism 8, and the DC50 and Dmax values of the compound were obtained.

Row | SMILES | IC50 (IRAK4 kinase) | DC50 [1] | Dmax [1]
1 | CN(CCC1CCN(C(=O)c2ccc(Cl)c(N3CCC(=O)NC3=O)c2)CC1)C[C@H]1CC[C@H](n2cc(NC(=O)c3cnn4ccc(N5CC6CCC(C5)O6)nc34)c(C(F)F)n2)CC1 [Example 10, 5-(8-oxa-3-azabicyclo[3.2.1]octan-3-yl)-N-(1-((1R,4R)-4-(((2-(1-(4-chloro-3-(2,4-dioxotetrahydropyrimidin-1(2H)-yl)benzoyl)piperidin-4-yl)ethyl)(methyl)amino)methyl)cyclohexyl)-3-(difluoromethyl)-1H-pyrazol-4-yl)pyrazolo[1,5-a]pyrimidine-3-carboxamide] | 8.05 nM | 0.67 nM | 97.6%
2 | O=C1CCN(c2cc(C(=O)N3CCC4(CCN(C[C@H]5CC[C@H](n6cc(NC(=O)c7cnn8ccc(N9CC%10CCC(C9)O%10)nc78)c(C(F)F)n6)CC5)CC4)CC3)ccc2Cl)C(=O)N1 [Example 11, 5-(8-oxa-3-azabicyclo[3.2.1]octan-3-yl)-N-(1-((1R,4R)-4-((9-(4-chloro-3-(2,4-dioxotetrahydropyrimidin-1(2H)-yl)benzoyl)-3,9-diazaspiro[5.5]undecan-3-yl)methyl)cyclohexyl)-3-(difluoromethyl)-1H-pyrazol-4-yl)pyrazolo[1,5-a]pyrimidine-3-carboxamide] | 7.74 nM | 0.88 nM | 97.4%
3 | COc1ccc(C(=O)N2CCC(CCN(C)C[C@H]3CC[C@H](n4cc(NC(=O)c5cnn6ccc(N7CCC[C@H](O)C7)nc56)c(C(F)F)n4)CC3)CC2)cc1N1CCC(=O)NC1=O [Example 14, N-(3-(difluoromethyl)-1-((1R,4S)-4-(((2-(1-(3-(2,4-dioxotetrahydropyrimidin-1(2H)-yl)-4-methoxybenzoyl)piperidin-4-yl)ethyl)(methyl)amino)methyl)cyclohexyl)-1H-pyrazol-4-yl)-5-((S)-3-hydroxypiperidin-1-yl)pyrazolo[1,5-a]pyrimidine-3-carboxamide] | 3.36 nM | 0.27 nM | 98.2%
4 | COc1ccc(C(=O)N2CCC(CCN(C)C[C@H]3CC[C@H](n4cc(NC(=O)c5cnn6ccc(N7CCC[C@H](N)C7)nc56)c(C(F)F)n4)CC3)CC2)cc1N1CCC(=O)NC1=O [Example 15, 5-((S)-3-aminopiperidin-1-yl)-N-(3-(difluoromethyl)-1-((1R,4S)-4-(((2-(1-(3-(2,4-dioxotetrahydropyrimidin-1(2H)-yl)-4-methoxybenzoyl)piperidin-4-yl)ethyl)(methyl)amino)methyl)cyclohexyl)-1H-pyrazol-4-yl)pyrazolo[1,5-a]pyrimidine-3-carboxamide] | 3.86 nM | 1.49 nM | 98.8%
5 | CN(CCC1CCN(C(=O)c2ccc(F)c(C3CCC(=O)NC3=O)c2)CC1)C(=O)[C@H]1CC[C@H](n2cc(NC(=O)c3cnn4ccc(N5CCOCC5)nc34)c(C(F)F)n2)CC1 (stereo partly drawn) [Example 17] | 9.82 nM | 0.92 nM | 98.9%
6 | CN(CCC1CCN(C(=O)c2ccc(Cl)c(N3CCC(=O)NC3=O)c2)CC1)C[C@H]1CC[C@H](n2cc(NC(=O)c3cnn4ccc(N5CCC[C@H](N)C5)nc34)c(C(F)F)n2)CC1 [Example 18, 5-((S)-3-aminopiperidin-1-yl)-N-(1-((1R,4S)-4-(((2-(1-(4-chloro-3-(2,4-dioxotetrahydropyrimidin-1(2H)-yl)benzoyl)piperidin-4-yl)ethyl)(methyl)amino)methyl)cyclohexyl)-3-(difluoromethyl)-1H-pyrazol-4-yl)pyrazolo[1,5-a]pyrimidine-3-carboxamide] | 7.86 nM | 0.77 nM | 99.5%
7 | O=C1CCN(c2cc(C(=O)N3CCC4(CCN(C[C@H]5CC[C@H](n6cc(NC(=O)c7cnn8ccc(N9CC%10(COC%10)C9)nc78)c(C(F)F)n6)CC5)CC4)CC3)ccc2Cl)C(=O)N1 [Example 19, N-(1-((1R,4R)-4-((9-(4-chloro-3-(2,4-dioxotetrahydropyrimidin-1(2H)-yl)benzoyl)-3,9-diazaspiro[5.5]undecan-3-yl)methyl)cyclohexyl)-3-(difluoromethyl)-1H-pyrazol-4-yl)-5-(2-oxa-6-azaspiro[3.3]heptan-6-yl)pyrazolo[1,5-a]pyrimidine-3-carboxamide] | 36.1 nM | 0.47 nM | 98%
8 | Cc1ccc(C(=O)N2CCC3(CCN(C[C@H]4CC[C@H](n5cc(NC(=O)c6cnn7ccc(N8CCC[C@H](O)C8)nc67)c(C(F)F)n5)CC4)CC3)CC2)cc1N1CCC(=O)NC1=O [Example 27, N-(3-(difluoromethyl)-1-((1R,4S)-4-((9-(3-(2,4-dioxotetrahydropyrimidin-1(2H)-yl)-4-methylbenzoyl)-3,9-diazaspiro[5.5]undecan-3-yl)methyl)cyclohexyl)-1H-pyrazol-4-yl)-5-((S)-3-hydroxypiperidin-1-yl)pyrazolo[1,5-a]pyrimidine-3-carboxamide] | 2.98 nM | 0.28 nM | 97.8%
9 | COc1ccc(C(=O)N2CCC(CCN(C)C[C@H]3CC[C@H](n4cc(NC(=O)c5cnn6ccc(N7CC8(COC8)C7)nc56)c(C(F)F)n4)CC3)CC2)cc1N1CCC(=O)NC1=O [Example 32, N-(3-(difluoromethyl)-1-((1R,4R)-4-(((2-(1-(3-(2,4-dioxotetrahydropyrimidin-1(2H)-yl)-4-methoxybenzoyl)piperidin-4-yl)ethyl)(methyl)amino)methyl)cyclohexyl)-1H-pyrazol-4-yl)-5-(2-oxa-6-azaspiro[3.3]heptan-6-yl)pyrazolo[1,5-a]pyrimidine-3-carboxamide] | 17 nM | 1.11 nM | 98.1%
10 | COc1cc2nn([C@H]3CC[C@](O)(COCC4CCN(C(=O)c5ccc(Cl)c(N6CCC(=O)NC6=O)c5)CC4)CC3)cc2cc1NC(=O)c1cccc(C(F)(F)F)n1 [Example 33, N-(2-((1S,4S)-4-(((1-(4-chloro-3-(2,4-dioxotetrahydropyrimidin-1(2H)-yl)benzoyl)piperidin-4-yl)methoxy)methyl)-4-hydroxycyclohexyl)-6-methoxy-2H-indol-5-yl)-6-(trifluoromethyl)pyridinecarboxamide] | 10.6 nM | 1.58 nM | 98.6%
11 | COc1cc2nn([C@H]3CC[C@](O)(COCCC4CCN(C(=O)c5ccc(Cl)c(N6CCC(=O)NC6=O)c5)CC4)CC3)cc2cc1NC(=O)c1cccc(C(F)(F)F)n1 [Example 34] | 12.9 nM | 1.32 nM | 99.1%
12 | COc1cc2nn([C@H]3CC[C@](O)(CN(C)CC4CCC5(CC4)CCN(C(=O)c4ccc(Cl)c(N6CCC(=O)NC6=O)c4)CC5)CC3)cc2cc1NC(=O)c1cccc(C(F)(F)F)n1 [Example 35] | 15.1 nM | 0.65 nM | 99.7%
